Assay results published in patent US9399623B2, “Quinoline derivatives and their use in neurodegenerative diseases” (Merck Patent GmbH, priority 2014, dated 2016).

Assays:
P2X7 [1] = molecular target: T1, P2X7 (Homo sapiens, UniProt Q99572); assay: IL-1β release assay in THP-1 cells (sandwich ELISA); format: cell-based; design: release of mature IL-1β in the culture medium of THP-1 cells; endogenous in cells; host or cells: THP-1 cells (PMA-differentiated, LPS-primed); settings: PMA, LPS primed, stimulated with 0.8 mM BzATP, mature IL-1β release, read-out: hTHP-1/IL-ib IC50
T1 sequence (Q99572 1-595): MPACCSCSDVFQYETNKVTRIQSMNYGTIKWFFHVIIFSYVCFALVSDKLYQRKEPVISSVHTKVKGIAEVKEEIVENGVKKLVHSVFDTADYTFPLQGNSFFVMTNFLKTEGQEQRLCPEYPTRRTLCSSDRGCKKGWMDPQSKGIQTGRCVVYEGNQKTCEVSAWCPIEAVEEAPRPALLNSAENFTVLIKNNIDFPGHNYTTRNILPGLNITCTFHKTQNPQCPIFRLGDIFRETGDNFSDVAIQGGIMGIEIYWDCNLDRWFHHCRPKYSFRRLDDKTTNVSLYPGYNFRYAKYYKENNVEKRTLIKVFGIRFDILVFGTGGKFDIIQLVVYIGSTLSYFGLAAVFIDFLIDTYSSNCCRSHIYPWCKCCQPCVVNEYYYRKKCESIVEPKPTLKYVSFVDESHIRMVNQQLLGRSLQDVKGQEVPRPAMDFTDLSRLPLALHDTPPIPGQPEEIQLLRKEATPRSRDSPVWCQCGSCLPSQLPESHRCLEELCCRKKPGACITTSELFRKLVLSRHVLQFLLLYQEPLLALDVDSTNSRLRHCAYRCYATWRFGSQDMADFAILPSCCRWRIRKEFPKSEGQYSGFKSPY
Method in brief: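 THP-1 cells differentiated with 0.5 μM PMA and primed 4 h with 10 ng/ml LPS at 37° C, then preincubated 20 min with compound. Stimulated with 0.8 mM BzATP for 30 min; mature IL-1β released into the supernatant quantified by sandwich ELISA.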

P2X7 [2] = molecular target: T1, P2X7; assay: Pore permeation assay (YO PRO dye uptake, BzATP-induced); format: cell-based; design: expressed in transfected cells; host or cells: HEK293; settings: HEK293 transfected with human P2X7 receptor; YO PRO dye 1 uM, BzATP 10 uM; read-out: hP2X7 IC50
Method in brief: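 HEK293 cells overexpressing human P2X7, plated overnight at 37 C, preincubated 20 min at room temperature with compound (10-point series from 2.5 uM) in HEPES-buffered saline pH 7.4 with 0.1 mM CaCl2. Then 10 uM BzATP plus 1 uM YO PRO added; dye uptake read by fluorescence after 30 min at room temperature.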

| SMILES | IC50 (P2X7 [1]) [nM] | IC50 (P2X7 [2]) [nM] |
| --- | --- | --- |
| COCCNc1ccc2c(C(=O)NCC3CCC(F)(F)CC3)c(Cl)ccc2n1 [Compound 68, 6-Chloro-2-(2-methoxy-ethylamino)-quinoline-5-carboxylic acid (4,4-difluoro-cyclohexyl methyl)-amide] | 500 to 999 | 10 to 100 |
| COCCOc1ccc2c(C(=O)NCC3CCC(F)(F)CC3)c(Cl)ccc2n1 [Compound 70, 6-Chloro-2-(2-methoxy-ethoxy)-quinoline-5-carboxylic acid (4,4-difluoro-cyclohexyl methyl)-amide] | 101 to 500 | 10 to 100 |
| CN(CCO)c1ccc2c(C(=O)NCC3CCC(F)(F)CC3)c(Cl)ccc2n1 [Compound 73] | 101 to 500 | 10 to 100 |
| O=C(NCC1CCC(F)(F)CC1)c1c(Cl)ccc2nc(N3CC(F)(F)C3)ccc12 [Compound 74, 6-Chloro-2-(3,3-difluoro-azetidin-1-yl)-quinoline-5-carboxylic acid (4,4-difluoro-cyclohexylmethyl)-amide] | 101 to 500 | 101 to 500 |
| O=C(NCC1(O)CCCC(F)(F)C1)c1c(Cl)ccc2nc(N3CC(F)(F)C3)ccc12 (stereo not shown) [Compound 75, 6-Chloro-2-(3,3-difluoroazetidin-1-yl)-quinoline-5-carboxylic acid (3,3-difluoro-1-hydroxycyclohexylmethyl)-amide] | 101 to 500 | 101 to 500 |
| O=C(NC[C@]1(O)CCCC(F)(F)C1)c1c(Cl)ccc2nc(N3CCC(F)(F)C3)ccc12 [Compound 80, 6-Chloro-2-(3,3-difluoropyrrolidin-1-yl)-quinoline-5-carboxylic acid ((S)-3,3-difluoro-1-hydroxycyclohexylmethyl)-amide] | > 1000 | 101 to 500 |

Results, then the compound that gave them:

| IC50 (P2X7 [1]) [nM] | IC50 (P2X7 [2]) [nM] | SMILES |
| --- | --- | --- |
| 10 to 100 | 10 to 100 | O=C(NCC1CCC(F)(F)CC1)c1c(Cl)ccc2nc(NCCO)ccc12 [Compound 66, 6-Chloro-2-(2-hydroxy-ethylamino)-quinoline-5-carboxylic acid (4,4-difluoro-cyclohexyl methyl)-amide] |
| 101 to 500 | 10 to 100 | CC(=O)NC1CCN(c2ccc3c(C(=O)NCC4CCC(F)(F)CC4)c(Cl)ccc3n2)C1 (stereo not shown) [Compound 67, 2-(3-Acetylamino-pyrrolidin-1-yl)-6-chloro-quinoline-5-carboxylic acid (4,4-difluoro-cyclohexylmethyl)-amide] |
| 101 to 500 | 10 to 100 | COCCCOc1ccc2c(C(=O)NCC3CCC(F)(F)CC3)c(Cl)ccc2n1 [Compound 69, 6-Chloro-2-(3-methoxy-propoxy)-quinoline-5-carboxylic acid (4,4-difluoro-cyclohexylmethyl)-amide] |
| 10 to 100 | 101 to 500 | O=C(NCC1(O)CCC(F)(F)CC1)c1c(Cl)ccc2ncccc12 [Compound 76] |
| 10 to 100 | 101 to 500 | O=C(NCC1CCC(F)(F)CC1)c1c(Cl)ccc2ncccc12 [Compound 78] |
